Drawing on patent US11976054B2, “Amide derivative and preparation method therefore and use thereof in medicine” (Chengdu Baiyu Pharmaceutical Co., Ltd., priority 2019, dated 2024), this text covers IC50 for 23 molecules.

The first experiment deals with Human monocyte cell line THP-1. In words: Detection of THP-1 cell pyroptosis (Caspase-Glo 1 Inflammasome Assay). It counts as cell-based. The following applies: Homo sapiens, THP-1, THP-1 pyroptosis, 20 nM PMA 48 h, 1 μg/mL LPS, compound 3 h. On the procedure: Human monocyte cell line THP-1 (ATCC® TB-202TM) was cultured in RPMI-1640 culture medium containing […], 1 mM pyruvic acid, 0.05 mM β-mercaptoethanol and 10% double antibody under the culture conditions of 37° C. and […].
Cell counting was performed, THP-1 cells were seeded into a 96-well plate at 50000 per well, and 20 nM PMA was added for inducing at 37° C./5% CO2 for 48 h. The culture medium was then discarded, and 100 μL of serum-free RPMI-1640 medium containing 1 μg/mL LPS was added. 5 μL of compound or solvent control was added and 3-fold diluted in gradient from a maximum concentration of 10 μM, and 10 gradient concentrations were set. The mixtures were incubated at 37° C./5% CO2 for 3 h. After the incubation, the mixtures were centrifuged at 300 g for 5 min, and the culture medium was discarded. Pyroptosis assay was performed according to specific steps described in instructions of Caspase-Glo® 1 Inflammasome Assay kit. IC50 was calculated using GraphPad Prism7.0 software.
The IC50 is the concentration that inhibits the measured activity by half. Read a high IC50 as weaker potency. As for `CC(c1ccc2c(c1NC(=O)NS(=O)(=O)c1cc(C(C)(C)O)co1)CCC2)C1CC1` (centres unmarked) [Compound 1, N-((5-(1-cyclopropylethyl)-2,3-dihydro-1H-inden-4-yl)carbamoyl)-4-(2-hydroxypropan-2-yl)furan-2-sulfonamide], the IC50 is 100 to 500 nM. `CC(C)(O)c1coc(S(=O)(=O)NC(=O)Nc2c(CC3CC3)ccc3c2CCC3)c1` [Compound 3, N-((5-(cyclopropylmethyl)-2,3-dihydro-1H-inden-4-yl)carbamoyl)-4-(2-hydroxypropan-2-yl)furan-2-sulfonamide] gave an IC50 of 100 to 500 nM. Regarding `COc1cc(-c2cc(F)cc(C(C)C3CC3)c2NC(=O)NS(=O)(=O)c2cc(C(C)(C)O)co2)ccn1` (centres unmarked) [Compound 4, N-((2-(1-cyclopropylethyl)-4-fluoro-6-(2-methoxypyridin-4-yl)phenyl)carbamoyl)-4-(2-hydroxypropan-2-yl)furan-2-sulfonamide], the 50% inhibitory concentration (IC50) lay within 100 to 500 nM. In the case of `C[C@@H](c1ccc2c(c1NC(=O)NS(=O)(=O)c1cc(C(C)(C)O)co1)CCC2)C1CC1` [Compound 5, (R)-N-((5-(1-cyclopropylethyl)-2,3-dihydro-1H-inden-4-yl)carbamoyl)-4-(2-hydroxypropan-2-yl)furan-2-sulfonamide], the concentration for half-maximal inhibition (IC50) is not above 100 nM. On to `CC(c1ccc2c(c1NC(=O)NS(=O)(=O)c1cc(C(C)(C)O)co1)CCC2)C1CCC1` (centres unmarked) [Compound 15, N-((5-(1-cyclobutylethyl)-2,3-dihydro-1H-inden-4-yl)carbamoyl)-4-(2-hydroxypropan-2-yl)furan-2-sulfonamide], for which the IC50 is 100 to 500 nM.

For `CC(c1ccc2c(c1NC(=O)NS(=N)(=O)c1cc(C(C)(C)O)co1)CCC2)C1CCC1` (centres unmarked) [Compound 16, N-((5-(1-cyclobutylethyl)-2,3-dihydro-1H-inden-4-yl)carbamoyl)-4-(2-hydroxypropan-2-yl)furan-2-sulfonimidamide], the concentration for half-maximal inhibition (IC50) was not above 100 nM.

For `CC(C)(O)c1coc(S(=O)(=O)NC(=O)Nc2c(CC3CCC3)ccc3c2CCC3)c1` [Compound 17, N-((5-(cyclobutylmethyl)-2,3-dihydro-1H-inden-4-yl)carbamoyl)-4-(2-hydroxypropan-2-yl)furan-2-sulfonamide], the half-maximal inhibitory concentration (IC50) was in the range of 100 to 500 nM.

The molecule `Cc1oc(S(=O)(=O)NC(=O)Nc2c([C@H](C)C3CC3)ccc3c2CCC3)cc1C(C)(C)O` [Compound 22, (R)-N-((5-(1-cyclopropylethyl)-2,3-dihydro-1H-inden-4-yl)carbamoyl)-4-(2-hydroxypropan-2-yl)-5-methylfuran-2-sulfonamide] yielded an IC50 not above 100 nM. For `C[C@@H](c1ccc2c(c1NC(=O)NS(=O)(=O)c1cc(C(C)(C)O)co1)CCC2)C1CCCC1` [Compound 26, (R)-N-((5-(1-cyclopentylethyl)-2,3-dihydro-1H-inden-4-yl)carbamoyl)-4-(2-hydroxypropan-2-yl)furan-2-sulfonamide], the IC50 fell in the range of 1000 to 5000 nM. The molecule `CC(C)(O)c1coc(S(=O)(=O)NC(=O)Nc2c(CC3CCCC3)ccc3c2CCC3)c1` [Compound 28, N-((5-(cyclopentylmethyl)-2,3-dihydro-1H-inden-4-yl)carbamoyl)-4-(2-hydroxypropan-2-yl)furan-2-sulfonamide] came in with an IC50 of 500 to 1000 nM. In turn, `[2H]c1cc([C@@H](C)C2CC2)c(NC(=O)NS(=O)(=O)c2cc(C(C)(C)O)co2)c2c1CCC2` [Compound 30, (S)-N-((5-(1-cyclopropylethyl)-2,3-dihydro-1H-inden-4-yl-7-d)carbamoyl)-4-(2-hydroxypropan-2-yl)furan-2-sulfonamide] showed a concentration for half-maximal inhibition (IC50) of 1000 to 5000 nM. `CC(C)(O)c1coc(S(=O)(=O)NC(=O)Nc2c(CC3CCC3)ccc3c2CC3)c1` [Compound 33, N-((3-(cyclobutylmethyl)bicyclo[4.2.0]octa-1(6),2,4-trien-2-yl)carbamoyl)-4-(2-hydroxypropan-2-yl)furan-2-sulfonamide] yielded a 50% inhibitory concentration (IC50) of 100 to 500 nM.

In turn, `C[C@H](c1ccc2c(c1NC(=O)NS(=O)(=O)c1cc(C(C)(C)O)co1)CC2)C1CC1` [Compound 35, (S)-N-((3-(1-cyclopropylethyl)bicyclo[4.2.0]octa-1(6),2,4-trien-2-yl)carbamoyl)-4-(2-hydroxypropan-2-yl)furan-2-sulfonamide] gave an IC50 of 1000 to 5000 nM. As for `C[C@@H](c1ccc2c(c1NC(=O)NS(=O)(=O)c1cc(C(C)(C)O)co1)CC2)C1CC1` [Compound 37, (R)-N-((3-(1-cyclopropylethyl)bicyclo[4.2.0]octa-1(6),2,4-trien-2-yl)carbamoyl)-4-(2-hydroxypropan-2-yl)furan-2-sulfonamide], the half-inhibitory concentration (IC50) lay within 100 to 500 nM. Still for that read-out and setting: for `C=C(c1c(C)cc2c(c1NC(=O)NS(=O)(=O)c1cc(C(C)(C)O)co1)CCC2)C1CC1` [Compound 40, N-((5-(1-cyclopropylvinyl)-6-methyl-2,3-dihydro-1H-inden-4-yl)carbamoyl)-4-(2-hydroxypropan-2-yl)furan-2-sulfonamide] the value was 1000 to 5000 nM. As for `C[C@@H](c1cc(C#N)c2c(c1NC(=O)NS(=O)(=O)c1cc(C(C)(C)O)co1)CCC2)C1CC1` [Compound 45, (R)-N-((7-cyano-5-(1-cyclopropylethyl)-2,3-dihydro-1H-inden-4-yl)carbamoyl)-4-(2-hydroxypropan-2-yl)furan-2-sulfonamide], the IC50 is 100 to 500 nM. For the molecule `C[C@H](c1cc(C#N)c2c(c1NC(=O)NS(=O)(=O)c1cc(C(C)(C)O)co1)CCC2)C1CC1` [Compound 47, (S)-N-((7-cyano-5-(1-cyclopropylethyl)-2,3-dihydro-1H-inden-4-yl)carbamoyl)-4-(2-hydroxypropan-2-yl)furan-2-sulfonamide], the concentration for half-maximal inhibition (IC50) was 500 to 1000 nM. `C[C@H](c1ccc2c(c1NC(=O)N[S@@](=N)(=O)c1cc(C(C)(C)O)cs1)CCC2)C1CC1` [Compound 54-1] registered an IC50 of 1000 to 5000 nM.

`C[C@H](c1ccc2c(c1NC(=O)N[S@](=N)(=O)c1cc(C(C)(C)O)cs1)CCC2)C1CC1` [Compound 54-2] yielded a half-maximal inhibitory concentration (IC50) of 100 to 500 nM.

Staying with this experiment, now noted: THP-1 pyroptosis, 20 nM PMA 48 h, 1 μg/mL LPS, compound 3 h.
`CC(C)(O)c1coc(S(=N)(=O)NC(=O)Nc2c(CC3CCC3)ccc3c2CC3)c1` (single isomer, unassigned) [Compound 34-1, RS- and SS-N-((3-(cyclobutylmethyl)bicyclo[4.2.0]octa-1(6),2,4-trien-2-yl)carbamoyl)-4-(2-hydroxypropan-2-yl)furan-2-sulfonimidamide] had an IC50 of 5000 to 10000 nM. `CC(C)(O)c1coc(S(=N)(=O)NC(=O)Nc2c(CC3CCC3)ccc3c2CC3)c1` (single isomer, unassigned) [Compound 34-2, RS- and SS-N-((3-(cyclobutylmethyl)bicyclo[4.2.0]octa-1(6),2,4-trien-2-yl)carbamoyl)-4-(2-hydroxypropan-2-yl)furan-2-sulfonimidamide] displayed a 50% inhibitory concentration (IC50) not above 100 nM.

Consider `CC(C)c1cccc(CC2CCC2)c1NC(=O)NS(=N)(=O)c1cc(C(C)(C)O)co1` (single isomer, unassigned) [Compound 70-1, RS- and SS-N-((2-(cyclobutylmethyl)-6-isopropylphenyl)carbamoyl)-4-(2-hydroxypropan-2-yl)furan-2-sulfonimidamide], for which the IC50 was not above 100 nM. Same read-out and setting: for `CC(C)c1cccc(CC2CCC2)c1NC(=O)NS(=N)(=O)c1cc(C(C)(C)O)co1` (single isomer, unassigned) [Compound 70-2, RS- and SS-N-((2-(cyclobutylmethyl)-6-isopropylphenyl)carbamoyl)-4-(2-hydroxypropan-2-yl)furan-2-sulfonimidamide] the value was 1000 to 5000 nM.
